Assay results as given in the NIST ThermoML archive (doi:10.1016/j.jct.2009.08.004).
± gives the expanded uncertainty stated by the source.

Assay: mn = molality of the nth substance listed, in mol/kg
Settings: 298.15 K, 101 kPa, Liquid, Pulse-echo method

NCC(=O)N[C@@H](CO)C(=O)NCC(=O)O [glycyl-L-serylglycine] + O
speed of sound (m1 = 0.02692): 1499.5 ± 0.77 m/s
speed of sound (m1 = 0.03696): 1500.6 ± 0.77 m/s
speed of sound (m1 = 0.04335): 1501.3 ± 0.77 m/s
speed of sound (m1 = 0.05037): 1502 ± 0.77 m/s
speed of sound (m1 = 0.06228): 1503.2 ± 0.77 m/s
